According to patent US5389621A, “Method of enhancing the anticoagulant effects of aspirin using salicylamide” (University of Medicine and Dentistry of New Jersey, priority 1994, dated 1995):
Entries after “also recorded” stand apart in the source; their conditions may differ.

Legend:
Assay type in all cases: in vivo, male Sprague-Dawley rats
[1] = Tissue distribution of 14C radioactivity after 14C-salicylamide
Procedure: All animals were identified by ear punching. Food and water were provided ad libitum.
(§1) Forty-eight rats were divided into two groups.
(§2) Each group consisted of 24 rats and was further divided into 4 subgroups, 6 rats each, according to the following scheme:
(§3) The rats were fasted overnight. The drug(s) were prepared fresh, dissolved in 2.5 ml of deionized water and administered orally by gavage needle. The rats were allowed water ad libitum before and after the oral administration.
The different treatments were given according to the previous scheme and each rat received an amount of radioactivity equal to […] in the case of radioactive aspirin and 10 μCu in the case of radioactive salicylamide. For the low and high dose ASA treatments 3696 and 1848 dpm ^14 C-ASA/μg total ASA were used respectively. For SAM, 24.4 and 12.2 dpm ^14 C-SAM/ng total SAM were utilized for low and high dose treatments, respectively.
(§4) The rats were anesthetized by light diethyl ether inhalation.
The rest of the red blood cells were washed twice by adding 2 ml of physiological saline and were resuspended after each addition. The red blood cells were centrifuged at 3000 rpm (1800×g) for 10 minutes and 300 μl were pipetted in a scintillation vial for measurement of ^14 C radioactivity.
(§5) After collecting the blood sample, the rats were sacrificed immediately by a diethyl ether overdose. The following tissues were collected: liver, lung, kidney, heart, spleen, perinephric fat, brain, upper small intestine, stomach, pancreas, bone (femur and tibia), testis, skin and skeletal muscle. A sample of bone marrow was also collected (approximately20 mg).
(§6) 300 mg tissue samples were placed in scintillation vials and 300 μl of 70% perchloric acid and 600 μl of 30% hydrogen peroxide were added to each vial and also to the vials containing the washed red blood cells aliquots. The vials were incubated at 75° C. for 1 hour in a shaking water bath and were tightly capped to prevent any loss of radioactivity by evaporation.
(§7) The vials were left to cool to room temperature for 15 minutes before 10 ml Aquasol-2 scintillation fluid was added to each vial. The total radioactivity was counted in a Beckman model 7500 LS spectrophotometer.

[2] = Tightly protein-bound 14C radioactivity after 14C-salicylamide; settings: for Tightly protein-bound 14C in heart / Tightly protein-bound 14C in kidney / Tightly protein-bound 14C in liver / Tightly protein-bound 14C in lung / Tightly protein-bound 14C in plasma: 1.5 hr; for Effect on tightly protein-bound 14C in lung: 14C-SAM with ASA
Procedure: as §1, §4
The plasma tightly protein-bound activity was measured by adding 100 μl of 10% trichloroacetic acid (TCA) to 100 μl of plasma in microcentrifuge tubes and vortexing the contents for 1 minute followed by centrifugation at 1800×g for 10 minutes. The supernatant was decanted and the tubes with the pellets in them were placed in scintillation vials each containing 15 ml of Aquasol-2 scintillation fluid. […] The radioactivity in the scintillation vials was counted in Beckman LS counter.
In the case of plasma analysis, 100 μl samples were used and the remainder of the procedure was the same as described above. The pellets were not dissolved but instead directly poured in a tube containing 15 ml of the scintillation fluid and the radioactivity was measured in the Beckman LS counter.

[3] = Tissue distribution of 14C radioactivity after 14C-aspirin; settings: for Tissue with the highest 14C concentration: 14C-ASA alone or with SAM, low dose
Procedure: Male adult Sprague-Dawley rats (300-325 gm) obtained from Charles River Breeding Laboratory, N. Wilmington, Mass. were quarantined for one week. All animals were identified by ear punching. Food and water were provided ad libitum. The animals were maintained on rodent lab chow diet in a controlled environment with 50% humidity and 12 hour light/dark cycle.
Forty-eight rats were divided into two groups. The first group of rats was administered ASA, SAM or their combination in a dose approximately equal (w/w) to that in the commercially available combinations, e.g., BC® formula, when administered to humans, i.e., 10 and 3 mg/kg of ASA and SAM, respectively. The second group was administered double the dosage received by the first group.
as §2, §3
The different treatments were given according to the previous scheme and each rat received an amount of radioactivity equal to […] in the case of radioactive aspirin and 10 μCu in the case of radioactive salicylamide.
The rats were anesthetized by light diethyl ether inhalation. A blood sample of nearly 3 ml was collected by cardiac puncture 1.5 hours after oral administration. The blood was transferred to chilled polyethylene tubes containing 30 μl of 50% (w/w) potassium fluoride to prevent hydrolysis of ASA. A 300 μl aliquot was pipetted in a scintillation vial to study the distribution in whole blood. The rest of the collected blood was immediately centrifuged at 1800×g for 10 minutes at 4° C. and the plasma was decanted. 100 μl of the plasma were pipetted in a scintillation vial for measurement of the total radioactivity and the rest of the plasma was stored immediately at -70° C. for later study of the distribution of the metabolites.
300 μl of the pellet of red blood cells was pipetted in a scintillation vial to study the distribution in red blood cells. The rest of the red blood cells were washed twice by adding 2 ml of physiological saline and were resuspended after each addition.
as §5, §6, §7

[4] = 1.5 hr, 14C-SAM 3 mg/kg, alone or with ASA 10 mg/kg
[5] = 1.5 hr, 14C-SAM 6 mg/kg, alone or with ASA 20 mg/kg
[6] = oral 14C-SAM 3 mg/kg, alone or with ASA 10 mg/kg
[7] = oral 14C-SAM 6 mg/kg, alone or with ASA 20 mg/kg
[8] = 1.5 hr, 14C-ASA 10 mg/kg, alone or with SAM 3 mg/kg
[9] = 1.5 hr, 14C-ASA 20 mg/kg, alone or with SAM 6 mg/kg

## N[14C](=O)c1ccccc1O [^14 C-SAM]
[1]; 14C-SAM alone or with ASA, low or high dose
  Organs with the highest 14C concentration: kidney followed by the stomach
[1]; [4]
  14C radioactivity in RBCs: 103 ± 9 ngm/gm tissu
  14C radioactivity in blood: 146 ± 20 ngm/gm tissu
  14C radioactivity in bone: 60 ± 7 ngm/gm tissu
  14C radioactivity in bone marrow: 14 ± 2 ngm/50 mg bone marrow
  14C radioactivity in brain: 27 ± 5 ngm/gm tissu
  14C radioactivity in fat: 41 ± 8 ngm/gm tissu
  14C radioactivity in heart: 44 ± 5 ngm/gm tissu
  14C radioactivity in kidney: 665 ± 152 ngm/gm tissu
  14C radioactivity in liver: 100 ± 12 ngm/gm tissu
  14C radioactivity in lung: 91 ± 11 ngm/gm tissu
  14C radioactivity in muscle: 56 ± 7 ngm/gm tissu
  14C radioactivity in pancreas: 93 ± 9 ngm/gm tissu
  14C radioactivity in plasma: 147 ± 24 ngm/gm tissu
  14C radioactivity in skin: 107 ± 10 ngm/gm tissu
  14C radioactivity in spleen: 83 ± 20 ngm/gm tissu
  14C radioactivity in stomach: 550 ± 154 ngm/gm tissu
  14C radioactivity in testis (printed TESUIS): 63 ± 7 ngm/gm tissu
  14C radioactivity in upper small intestine: 130 ± 27 ngm/gm tissu
  14C radioactivity in washed RBCs: 77 ± 10 ngm/gm tissu
[1]; [5]
  14C radioactivity in RBCs: 118 ± 22 ngm/gm tissu
  14C radioactivity in blood: 198 ± 32 ngm/gm tissu
  14C radioactivity in bone: 153 ± 38 ngm/gm tissu
  14C radioactivity in bone marrow: 29 ± 17 ngm/50 mg bone marrow
  14C radioactivity in brain: 33 ± 1 ngm/gm tissu
  14C radioactivity in fat: 130 ± 14 ngm/gm tissu
  14C radioactivity in heart: 106 ± 10 ngm/gm tissu
  14C radioactivity in kidney: 1358 ± 441 ngm/gm tissu
  14C radioactivity in liver: 136 ± 12 ngm/gm tissu
  14C radioactivity in lung: 218 ± 12 ngm/gm tissu
  14C radioactivity in muscle: 78 ± 3 ngm/gm tissu
  14C radioactivity in pancreas: 147 ± 9 ngm/gm tissu
  14C radioactivity in plasma: 237 ± 49 ngm/gm tissu
  14C radioactivity in skin: 240 ± 11 ngm/gm tissu
  14C radioactivity in spleen: 200 ± 26 ngm/gm tissu
  14C radioactivity in stomach: 832 ± 217 ngm/gm tissu
  14C radioactivity in testis: 155 ± 17 ngm/gm tissu
  14C radioactivity in upper small intestine: 268 ± 34 ngm/gm tissu
  14C radioactivity in washed RBCs: 92 ± 12 ngm/gm tissu
[2]; [6]
  Tightly protein-bound 14C in heart: 20.6 ± 1.7 ng ^14 C/gm tissue
  Tightly protein-bound 14C in kidney: 669.0 ± 45.1 ng ^14 C/gm tissue
  Tightly protein-bound 14C in liver: 24.2 ± 4.0 ng ^14 C/gm tissue
  Tightly protein-bound 14C in lung: 43.1 ± 6.1 ng ^14 C/gm tissue
  Tightly protein-bound 14C in plasma: 57.8 ± 3.0 ng ^14 C/ml plasma
[2]; [7]
  Tightly protein-bound 14C in heart: 87.7 ± 11.0 ng ^14 C/gm tissue
  Tightly protein-bound 14C in kidney: 1104.5 ± 212.6 ng ^14 C/gm tissue
  Tightly protein-bound 14C in liver: 72.6 ± 10.7 ng ^14 C/gm tissue
  Tightly protein-bound 14C in lung: 134.8 ± 20.7 ng ^14 C/gm tissue
  Tightly protein-bound 14C in plasma: 154.6 ± 29.8 ng ^14 C/ml plasma

## NC(=O)c1ccccc1O [SAM, Salicylamide]
[3]; 14C-ASA 20 mg/kg with SAM 6 mg/kg vs 14C-ASA alone
  Change of 14C distribution in plasma, skin, testis and brain: significant increase
[3]; 1.5 hr
  Tissue with the highest 14C concentration: plasma attained the highest concentration
[3]; 1.5 hr, 14C-ASA/SAM 10/3 mg/kg vs 14C-ASA 10 mg/kg
  Change of 14C activity in stomach (gastric mucosa): lower concentration of ^14 C radioactivity
[3]; SAM with 14C-ASA
  Change of 14C radioactivity and 14C-SA in plasma, liver and lung: discernable and parallel increase

## CC(=O)Oc1ccccc1[14C](=O)O [^14 C-ASA]
[3]; [8]
  14C radioactivity in RBCs: 4.2 ± 1.2 μg/gm tissue
  14C radioactivity in blood: 17.1 ± 3.1 μg/gm tissue
  14C radioactivity in bone: 2.7 ± 0.08 μg/gm tissue
  14C radioactivity in bone marrow: 0.24 ± 0.05 μg/50 mg of bone marrow
  14C radioactivity in brain: 1.5 ± 0.1 μg/gm tissue
  14C radioactivity in fat: 3.3 ± 0.1 μg/gm tissue
  14C radioactivity in heart: 5.6 ± 0.5 μg/gm tissue
  14C radioactivity in kidney: 15.1 ± 0.9 μg/gm tissue
  14C radioactivity in liver: 7.9 ± 0.9 μg/gm tissue
  14C radioactivity in lung: 7.3 ± 0.5 μg/gm tissue
  14C radioactivity in muscle: 3.5 ± 0.2 μg/gm tissue
  14C radioactivity in pancreas: 5.7 ± 0.4 μg/gm tissue
  14C radioactivity in plasma: 35.5 ± 1.7 μg/gm tissue
  14C radioactivity in skin: 8.9 ± 0.4 μg/gm tissue
  14C radioactivity in spleen: 2.9 ± 0.6 μg/gm tissue
  14C radioactivity in stomach: 18.9 ± 3.3 μg/gm tissue
  14C radioactivity in testis: 5.1 ± 0.5 μg/gm tissue
  14C radioactivity in upper small intestine: 5.8 ± 0.6 μg/gm tissue
  14C radioactivity in washed RBCs: 1.5 ± 0.5 μg/gm tissue
[3]; [9]
  14C radioactivity in RBCs: 8.8 ± 1.2 μgm/gm tissue
  14C radioactivity in blood: 36.1 ± 3.5 μgm/gm tissue
  14C radioactivity in bone: 7.1 ± 0.6 μgm/gm tissue
  14C radioactivity in bone marrow: 0.79 ± 0.03 μgm/50 mg bone marrow
  14C radioactivity in brain: 4.1 ± 0.07 μgm/gm tissue
  14C radioactivity in fat: 4.5 ± 0.3 μgm/gm tissue
  14C radioactivity in heart: 17.5 ± 0.5 μgm/gm tissue
  14C radioactivity in kidney: 32.0 ± 3.2 μgm/gm tissue
  14C radioactivity in liver: 19.7 ± 0.9 μgm/gm tissue
  14C radioactivity in lung: 19.3 ± 0.7 μgm/gm tissue
  14C radioactivity in muscle: 9.5 ± 0.4 μgm/gm tissue
  14C radioactivity in pancreas: 12.6 ± 0.5 μgm/gm tissue
  14C radioactivity in plasma: 65.1 ± 1.91 μgm/gm tissue
  14C radioactivity in skin: 21.9 ± 0.6 μgm/gm tissue
  14C radioactivity in spleen: 10.0 ± 0.9 μgm/gm tissue
  14C radioactivity in stomach: 22.9 ± 4.6 μgm/gm tissue
  14C radioactivity in testis: 14.1 ± 0.6 μgm/gm tissue
  14C radioactivity in upper small intestine: 15.1 ± 1.0 μgm/gm tissue
  14C radioactivity in washed RBCs: 3.8 ± 0.9 μgm/gm tissue
[3]; 1.5 hr
  Tissue with the highest 14C concentration: plasma attained the highest concentration

## CC(=O)Oc1ccccc1C(=O)O [ASA, acetylsalicylic acid]
[1]; 14C-SAM/ASA 3/10 mg/kg vs 14C-SAM alone
  Change of tissue 14C in RBCs, bone, fat, skin, muscle, heart and others: enhanced the tissue concentration; also recorded: significant elevation
[1]; 14C-SAM/ASA high dose vs 14C-SAM alone, liver, lung, RBCs, and muscle or heart
  Change of tissue 14C, high dose: significantly augmented
[2]; high dose
  Effect on tightly protein-bound 14C in lung: reached a significant level
[2]; low dose
  Effect on tightly protein-bound 14C in lung: tended to be higher
[2]; low dose combination
  Effect of ASA on tightly protein-bound 14C in heart: significantly enhanced
